Assay results: PMC9276671, “A first-in-human Phase I dose-escalation trial of the novel therapeutic peptide, ALM201, demonstrates a favourable safety profile in unselected patients with ovarian cancer and other advanced solid tumours” (British Journal of Cancer, 2022)
Where two headings read alike, the source gives them in different places. No end group written: not given here.

Assays:
tubulin = test system: tubulin; parameters: method as in Investigator brochure (IB); conditions: ref Investigator brochure (IB), read-out: Tubulin polymerisation IC50, cited from earlier work
[1] = test system: ovarian patient-derived xenograft models; conditions: cited from earlier work
[2] = Safety and tolerability: adverse events and DLT (CTCAE v4.03); format: in vivo
Description: Eligible participants were enrolled in sequential cohorts treated with a subcutaneous (SC) injection of ALM201, with close monitoring for safety and dose-limiting toxicities (DLTs). Dose levels were not weight-adjusted, and the starting dose for the study was 10 mg ALM201 given on days 1–5, 8–12 and 15–19 every 21 days, i.e., weekday dosing to be given continuously. […] Every new dose cohort was evaluated for the occurrence of a DLT during treatment cycle 1.
This study commenced with an accelerated dose-escalation design, then switched to a conventional algorithm (3 + 3 patients per dose level) to identify the maximum tolerated dose (MTD), escalating on observation of 0/3 or 1/6 DLTs, and de-escalating if two or more patients with DLTs were encountered.
Safety assessments included physical examination, vital signs, biochemistry and haematology laboratory screens, plus immunogenicity testing. Safety evaluations were conducted weekly during each treatment cycle, with DLT assessed during cycle one only. All events and suspected DLTs were graded according to the Common Toxicity Criteria for Adverse Events (CTCAE), version 4.03.

## IRQQPRDPPTETLELEVSPDPAS [ALM201]
tubulin; protocol Table 2
  IC50: 0.1 nM
tubulin; protocol Table 3
  IC50: 0.11 nM
[1]
  Tumour growth inhibition: > 60%
[2]; SC weekday doses of up to 300 mg
  Maximum tolerated dose (MTD): not reached
[2]; all dose levels
  CTCAE grade 4-related toxicities: no CTCAE grade 4-related toxicities
[2]; cohort 8 (100 mg) and cohort 1 (10 mg)
  Thrombotic events, number of patients: two
[2]; cycle 1, 10-300 mg SC
  Dose-limiting toxicities (DLTs): No DLTs
[2]; in vivo
  Abdominal wall bruising, causality: Definite
  Anorexia, causality: Possible
  Arthralgia, causality: Possible
  Blurred vision, causality: Probable
  Depression, causality: Possible
  Diarrhoea, causality: Possible
  Fatigue, causality: Possible
  Headache, causality: Possible
  Hot flushes, causality: Possible
  Injection-site erythema, causality: Definite
  Injection-site immune reaction, causality: Definite
  Injection-site pain, causality: Definite
  Nausea, causality: Possible
  Oral candidiasis, causality: Possible
  Pedal oedema, causality: Possible
  Pruritus, causality: Definite
  Pulmonary embolus, causality: Possible
  Pyrexia, causality: Possible
  Urinary tract infection, causality: Possible
  Venous thrombus, causality: Possible
  Vomiting, causality: Possible
